Source: patent US11123354B2, “Method for the treatment of osteoarthritis” (ABIOGEN PHARMA S.P.A., priority 2016, dated 2021)

What was measured:
[1] = tested on: OA rats (MIA model); assay: Difference in edema size between right and left knees, MIA-induced OA rats, weekly intra-articular treatment; assay type: in vivo, Sprague Dawley rats; conditions: 4 weekly i.a. administrations
Text: (§1) As an experimental model of OA induction, one involving the intra-articular administration of MIA (monosodium iodoacetate) was used.
The IA injection of MIA creates a model of acute inflammation that allows the study of cartilage degradation and joint pain.
(§2) The rats were anesthetized by a gaseous mixture of isoflurane and oxygen, and maintained in a supine position. Once the infrapatellar ligament was identified by touch, a single intra-articular injection of monosodium iodoacetate (MIA) was performed in the right knee, after having shaved the skin of the area, while keeping the joint slightly flexed. The amount of MIA injected was equal to 1 mg dissolved in 50 μl of saline solution, having a pH of about 4.5, as measured just before administration. The joint of the left knee was instead injected with 50 μl of saline solution alone, and this represented the internal control.
(§3) The treatment involved 4 weekly administrations of sodium chlodronate, followed by one week of follow-up.
(§4) The study included 8 treatment groups, each consisting of 10 male Sprague Dawley rats, specifically five treatment groups consisting of OA rats, on which the chlodronate doses of 2, 10, 20, 30, and 40 mg/ml, corresponding to 0.1, 0.5, 1, 1.5, and 2 mg/rat, were tested, and the remaining three groups represented by untreated OA rats, operated but untreated Sham rats, and rats administered only with placebo at pH 4.5.
(§5) During the treatment period, the animals were regularly checked in relation to the increase in body mass, food intake, and general health conditions. Clinical and hematological analyses were performed at the end of the study. The difference between the size of the edema in the two inflamed knees for all the observation groups, the final serum concentration of CTX-I (C-telopeptide of type I collagen), as a marker of bone turnover, and the final serum concentration of CTX-II (C-telopeptide of type II collagen), as a marker of cartilage turnover were investigated.
The measurement of the difference in size of the right and left knee edema (indicated with D and expressed in mm) was performed on anesthetized rats, by using a digital caliper (Digi-max slide caliper W/LCD readout Sigma Aldrich).

[2] = tested on: CTX-I (C-telopeptide of type I collagen); assay: CTX-I final serum concentration, MIA-induced OA rats, weekly treatment; assay type: in vivo, Sprague Dawley rats
Method: as §1, §2, §3, §4, §5
Considering that CTX-I (C-telopeptide of type I collagen) is a bone turnover marker and its concentration levels are proportional to the osteoclastic activity, the measurement of CTX-I final serum concentration value is a measure of the treatment efficacy.

[3] = tested on: CTX-II (C-telopeptide of type II collagen); assay: CTX-II final serum concentration, MIA-induced OA rats, weekly treatment; assay type: in vivo, Sprague Dawley rats
Method: as §1, §2, §3, §4, §5
Considering that CTX-II (C-telopeptide of type II collagen) is a cartilage turnover marker and its concentration levels are proportional to the […], the measurement of CTX-II final serum concentration value is a measure of the treatment efficacy.

[4] = tested on: OA rats (bilateral anterior cruciate ligament surgical resection); assay: Histopathological evaluation (modified Mankin score), OA rats by anterior cruciate ligament resection, monthly treatment; assay type: in vivo, Sprague Dawley rats; conditions: 4 monthly i.a. doses, scale 0 (normal) to 15 (seriously damaged)
Method: (§6) In this study, the efficacy of a treatment performed by monthly intra-articular administration of sodium chlodronate on male “Sprague Dawley” rats affected by OA was evaluated. The treatment involved 4 monthly doses of sodium chlodronate, followed by one month of follow-up.
(§7) In the experimental model, OA was induced in rats by bilateral anterior cruciate ligament surgical resection in both hind limbs.
(§8) A volume of 50 μL of treatment solution, having a pH of about 4.5, as measured just before administration, was injected into the intra-articular cavity of each knee.
(§9) The study included 5 treatment groups, each consisting of 10 male rats, specifically two treatment groups consisting of OA rats, on which chlodronate doses of 8 and 12 mg/ml, corresponding to 0.4 and 0.6 mg/rat, were tested, and remaining three groups represented by untreated OA rats, operated but untreated Sham rats, and rats receiving placebo alone.
(§10) During the treatment period, the animals were regularly checked in relation to the increase in body mass, food intake and general health conditions. Clinical and hematological analyses were performed at the end of the study. […]

[5] = tested on: OA rats (bilateral anterior cruciate ligament surgical resection); assay: Histomorphometric evaluation of the cartilage area, OA rats by anterior cruciate ligament resection, monthly treatment; assay type: in vivo, Sprague Dawley rats; conditions: 4 monthly i.a. doses
Method: as §6, §7, §8, §9, §10
Histomorphometric quantitative measurements of the cartilage area were performed using Image-Pro Plus 4.1 software for windows (Media Cybernetics, Maryland, USA). […]

[6] = pH, osmolality and density of unitary dosage form aqueous solutions; assay type: physicochemical; conditions: aqueous solution
Method: Osmolality values were determined according to USP, chapter […] under the heading “Osmolality and Osmolarity”.
Certain compositions of the invention were prepared in unitary dosage form, in the form of an aqueous solution, for weekly, biweekly or monthly administration, comprising sodium chlodronate in tetrahydrate form, whose quali-quantitative compositions and pH, osmolality, and density values, are shown in Table 8 below.
As it is apparent from the table, all the compositions prepared had particularly high osmolality values. Osmolalities were determined by GONOTEC Osmometer, OSMOMAT 3000-D model, serial number 3000150264 according to USP, chapter 785 under the title “Osmolality and Osmolarity”.

[7] = 5.00 mg sodium chlodronate per unitary dosage form (1 ml)
[8] = 10.00 mg sodium chlodronate per unitary dosage form (1 ml)
[9] = 20.00 mg sodium chlodronate per unitary dosage form (1 ml)
[10] = 30.00 mg sodium chlodronate per unitary dosage form (1 ml)
[11] = 40.00 mg sodium chlodronate per unitary dosage form (1 ml)

## O=P([O-])(O)C(Cl)(Cl)P(=O)([O-])O.[Na+].[Na+] [Sodium Chlodronate, sodium chlodronate]
[1]; 2 mg/ml (0.1 mg/rat)
  D, Mean Value (mm) ± SEM (difference in size of right and left knee edema): 0.37 ± 0.067 mm
[1]; 10 mg/ml (0.5 mg/rat)
  D, Mean Value (mm) ± SEM (difference in size of right and left knee edema): 0.28 ± 0.063 mm
[1]; 20 mg/ml (1 mg/rat)
  D, Mean Value (mm) ± SEM (difference in size of right and left knee edema): 0.27 ± 0.047 mm
[1]; 30 mg/ml (1.5 mg/rat)
  D, Mean Value (mm) ± SEM (difference in size of right and left knee edema): 0.11 ± 0.043 mm
[1]; 40 mg/ml (2 mg/rat)
  D, Mean Value (mm) ± SEM (difference in size of right and left knee edema): 0.28 ± 0.033 mm
[2]; 2 mg/mL weekly i.a.
  CTX-I Value: 4.77 pg/mL
[2]; 10 mg/mL weekly i.a.
  CTX-I Value: 4.87 pg/mL
[2]; 20 mg/mL weekly i.a.
  CTX-I Value: 4.6 pg/mL
[2]; 30 mg/mL weekly i.a.
  CTX-I Value: 4.36 pg/mL
[2]; 40 mg/mL weekly i.a.
  CTX-I Value: 4.16 pg/mL
[3]; 2 mg/mL weekly i.a.
  CTX-II Value: 6.84 pg/mL
[3]; 10 mg/mL weekly i.a.
  CTX-II Value: 6.48 pg/mL
[3]; 20 mg/mL weekly i.a.
  CTX-II Value: 5.93 pg/mL
[3]; 30 mg/mL weekly i.a.
  CTX-II Value: 5.67 pg/mL
[3]; 40 mg/mL weekly i.a.
  CTX-II Value: 5.73 pg/mL
[4]; 8 mg/ml (0.4 mg/rat)
  Mankin Index Mean Value ± SEM: 4.9 ± 0.458
[4]; 12 mg/ml (0.6 mg/rat)
  Mankin Index Mean Value ± SEM: 2.6 ± 0.618
[5]; 8 mg/ml (0.4 mg/rat)
  Cartilage Area Average Value ± SEM: 486 ± 157.7
[5]; 12 mg/ml (0.6 mg/rat)
  Cartilage Area Average Value ± SEM: 435 ± 125.9
[6]; [7]
  Density: 1.014 g/mL
  Osmolality (mOsm/Kg): 395 mOsm/Kg
  pH: 4.6
[6]; [8]
  Density: 1.016 g/mL
  Osmolality (mOsm/Kg): 400 mOsm/Kg
  pH: 4.5
[6]; [9]
  Density: 1.021 g/mL
  Osmolality (mOsm/Kg): 388 mOsm/Kg
  pH: 4.4
[6]; [10]
  Density: 1.027 g/mL
  Osmolality (mOsm/Kg): 408 mOsm/Kg
  pH: 4.4
[6]; [11]
  Density: 1.032 g/mL
  Osmolality (mOsm/Kg): 413 mOsm/Kg
  pH: 4.5
